Converted amounts (≈) assume the structure as drawn.
Columns and labels:
[1] = test system: Escherichia coli; test: Antimicrobial activity against Escherichia coli EC2880 mutant after 16 to 20 hrs; type: functional
[2] = molecular target: T1, DNA-directed RNA polymerase subunit beta (Mycobacterium tuberculosis) (UniProt P9WGY9); test: (§1) Inhibition of wild type Mycobacterium tuberculosis RNA polymerase after 10 mins using ribo green staining by rolling circle transcription assay; parameters: unit not given here
T1 sequence (whole entry): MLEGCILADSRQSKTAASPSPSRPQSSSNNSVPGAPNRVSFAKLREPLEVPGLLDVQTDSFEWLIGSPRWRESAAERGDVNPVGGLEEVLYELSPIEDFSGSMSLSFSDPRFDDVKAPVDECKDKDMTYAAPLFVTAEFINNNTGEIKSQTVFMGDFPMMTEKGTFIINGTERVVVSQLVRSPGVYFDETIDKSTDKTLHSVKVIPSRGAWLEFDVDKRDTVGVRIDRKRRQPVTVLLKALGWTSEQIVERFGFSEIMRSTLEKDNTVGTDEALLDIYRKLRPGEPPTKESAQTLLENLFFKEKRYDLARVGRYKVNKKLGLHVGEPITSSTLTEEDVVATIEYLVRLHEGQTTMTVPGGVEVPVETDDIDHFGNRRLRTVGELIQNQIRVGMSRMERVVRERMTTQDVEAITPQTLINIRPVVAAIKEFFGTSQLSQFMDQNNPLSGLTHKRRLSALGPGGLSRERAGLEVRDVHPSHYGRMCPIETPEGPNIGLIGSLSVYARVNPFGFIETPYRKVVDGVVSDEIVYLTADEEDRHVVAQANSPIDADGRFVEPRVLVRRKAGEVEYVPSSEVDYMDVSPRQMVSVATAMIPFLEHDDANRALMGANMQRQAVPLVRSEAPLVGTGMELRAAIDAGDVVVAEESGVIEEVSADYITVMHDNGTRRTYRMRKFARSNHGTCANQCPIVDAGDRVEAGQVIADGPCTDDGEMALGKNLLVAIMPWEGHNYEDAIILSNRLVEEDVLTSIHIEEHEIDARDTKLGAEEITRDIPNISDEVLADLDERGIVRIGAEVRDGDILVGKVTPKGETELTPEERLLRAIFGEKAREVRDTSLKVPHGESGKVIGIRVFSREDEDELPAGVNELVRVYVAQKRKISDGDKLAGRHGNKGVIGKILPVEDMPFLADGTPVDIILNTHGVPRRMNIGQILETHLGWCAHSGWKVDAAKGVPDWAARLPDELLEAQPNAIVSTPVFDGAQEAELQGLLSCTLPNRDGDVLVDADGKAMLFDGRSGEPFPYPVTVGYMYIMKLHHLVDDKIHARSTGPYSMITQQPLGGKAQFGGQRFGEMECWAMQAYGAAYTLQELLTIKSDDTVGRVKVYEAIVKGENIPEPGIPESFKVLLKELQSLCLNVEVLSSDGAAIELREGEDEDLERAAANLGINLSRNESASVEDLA

[3] = molecular target: T2, DNA-directed RNA polymerase subunit beta (Mycobacterium tuberculosis, UniProt P9WGY9); test: as §1
T2 sequence (P9WGY9 whole entry): T1 sequence (whole entry)

[4] = test system: Mycobacterium tuberculosis; test: Antimicrobial activity against replicating Mycobacterium tuberculosis after 8 days by micro plate alamar blue assay; type: functional; conditions: 192 h
[5] = test system: Escherichia coli; test: Antimicrobial activity against wild type Escherichia coli DH5[alpha] after 16 to 20 hrs; type: functional
[6] = test system: Mycobacterium tuberculosis; test: Antimicrobial activity against non-replicating Mycobacterium tuberculosis after 11 days by luminescence based low oxygen recovery assay; type: functional; conditions: 264 h
[7] = test system: Escherichia coli; test: Antimicrobial activity against wild type Escherichia coli TG2 after 16 to 20 hrs; type: functional
[8] = molecular target: T3, Nuclear receptor subfamily 1 group I member 2 (Homo sapiens, UniProt O75469); test: Activation of human PXR in DPX2 cells up to 100 uM after 24 hrs by microplate reader relative to control; type: ADME, cell-based
T3 sequence (O75469 whole entry): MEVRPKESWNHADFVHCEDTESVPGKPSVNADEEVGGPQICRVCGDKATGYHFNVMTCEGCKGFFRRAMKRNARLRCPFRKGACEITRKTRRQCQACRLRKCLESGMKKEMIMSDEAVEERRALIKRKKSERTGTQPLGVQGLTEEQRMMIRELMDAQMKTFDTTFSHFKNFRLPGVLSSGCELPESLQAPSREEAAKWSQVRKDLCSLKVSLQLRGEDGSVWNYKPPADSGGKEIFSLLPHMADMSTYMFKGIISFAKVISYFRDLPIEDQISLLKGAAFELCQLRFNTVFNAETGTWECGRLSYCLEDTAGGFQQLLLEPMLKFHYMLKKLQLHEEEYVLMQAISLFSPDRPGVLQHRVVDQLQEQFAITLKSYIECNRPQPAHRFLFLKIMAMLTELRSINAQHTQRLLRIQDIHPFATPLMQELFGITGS

[9] = molecular target: T3, Nuclear receptor subfamily 1 group I member 2; test: (§2) Activation of human PXR in DPX2 cells after 24 hrs by microplate reader relative to control; type: ADME, cell-based
[10] = molecular target: T4, PXR (nuclear receptor subfamily 1 group I member 2) (Homo sapiens, UniProt O75469); test: as §2; type: ADME, cell-based; conditions: human, DPX2 cells; read-out: FC
T4 sequence (O75469 whole entry): T3 sequence (O75469 whole entry)

[11] = molecular target: T1, DNA-directed RNA polymerase subunit beta (Mycobacterium tuberculosis); test: Ratio of compound IC50 to Rifamycin S IC50 for wild type Mycobacterium tuberculosis RNA polymerase

Row | SMILES | MIC90 [1] [µM] | logIC50 [2] | IC50 [3] [nM] | MIC90 [4] [µM] | MIC90 [5] [µM] | MIC90 [6] [µM] | MIC90 [7] [µM] | EC50 [8] | EC50 [9] [nM] | fold induction at 24 h [10] | Ratio IC50 [11]
1 | CO[C@H]1/C=C/O[C@@]2(C)Oc3c(C)c(O)c4c(c3C2=O)C(=O)C(/C=N/N2CCN(C)CC2)=C(NC(=O)/C(C)=C\C=C\[C@H](C)[C@H](O)[C@@H](C)[C@@H](O)[C@@H](C)[C@H](OC(C)=O)[C@@H]1C)C4=O [RIFAMPIN S] | 0.1 (≈ 0.0821 µg/mL) | -1.88 | 13 | 0.07 (≈ 0.0575 µg/mL) | 25 (≈ 20.5 µg/mL) | 0.5 (≈ 0.41 µg/mL) | 12.5 (≈ 10.3 µg/mL) |  |  |  | 
2 | CO[C@H]1/C=C/O[C@@]2(C)Oc3c(c4c5c(nn(CCO)c5c3C)C(=C(/C=N/N3CCN(C)CC3)C4=O)NC(=O)/C(C)=C\C=C\[C@H](C)[C@H](O)[C@@H](C)[C@@H](O)[C@@H](C)[C@H](OC(C)=O)[C@@H]1C)C2=O | > 12.5 | -0.856 | 139 | 3.9 (≈ 3.36 µg/mL) | > 100 | > 18.6 | > 100 |  |  |  | 
3 | CO[C@H]1/C=C/O[C@@]2(C)Oc3c(C)c(N(C)C)c4c(c3C2=O)C(=O)C=C(NC(=O)/C(C)=C\C=C\[C@H](C)[C@H](O)[C@@H](C)[C@@H](O)[C@@H](C)[C@H](OC(C)=O)[C@@H]1C)C4=O | 12.5 (≈ 9.04 µg/mL) | -0.298 | 503 | 1.8 (≈ 1.3 µg/mL) | > 100 | 5.4 (≈ 3.9 µg/mL) | > 100 |  |  |  | 
4 | CO[C@H]1/C=C/O[C@@]2(C)Oc3c(c4c5c(nn(C)c5c3C)C(=C(/C=N/N3CCN(C)CC3)C4=O)NC(=O)/C(C)=C\C=C\[C@H](C)[C@H](O)[C@@H](C)[C@@H](O)[C@@H](C)[C@H](OC(C)=O)[C@@H]1C)C2=O |  |  |  | > 4.8 |  | > 19.3 |  | Not Active |  |  | 
5 | CNc1c(C)c2c3c4c(O)c(/C=N/N5CCN(C)CC5)c(c(O)c14)NC(=O)/C(C)=C\C=C\[C@H](C)[C@H](O)[C@@H](C)[C@@H](O)[C@@H](C)[C@H](OC(C)=O)[C@H](C)[C@@H](OC)/C=C/O[C@@](C)(O2)C3=O |  |  |  | 4 (≈ 3.34 µg/mL) |  | > 19.1 |  |  | 4100 | 8.9 | 
6 | CO[C@H]1/C=C/O[C@@]2(C)Oc3c(C)c(O)c4c(c3C2=O)C(=O)C=C(NC(=O)/C(C)=C\C=C\[C@H](C)[C@H](O)[C@@H](C)[C@@H](O)[C@@H](C)[C@H](OC(C)=O)[C@@H]1C)C4=O [RIFAMYCIN S] | 0.78 (≈ 0.543 µg/mL) |  | < 10 | 0.03 (≈ 0.0209 µg/mL) | > 100 | 0.4 (≈ 0.278 µg/mL) | 100 (≈ 69.6 µg/mL) |  |  |  | 
7 | CO[C@H]1/C=C/O[C@@]2(C)Oc3c(C)c(SC)c4c(c3C2=O)C(=O)C=C(NC(=O)/C(C)=C\C=C\[C@H](C)[C@H](O)[C@@H](C)[C@@H](O)[C@@H](C)[C@H](OC(C)=O)[C@@H]1C)C4=O | > 12.5 | -1.82 | 15 | 2 (≈ 1.45 µg/mL) | > 100 | 1.3 (≈ 0.944 µg/mL) | > 100 |  |  |  | 
8 | CO[C@H]1/C=C/O[C@@]2(C)Oc3c(C)c(N)c4c(c3C2=O)C(=O)C=C(NC(=O)/C(C)=C\C=C\[C@H](C)[C@H](O)[C@@H](C)[C@@H](O)[C@@H](C)[C@H](OC(C)=O)[C@@H]1C)C4=O | 12.5 (≈ 8.68 µg/mL) | 0.644 | 4400 | 1.41 (≈ 0.98 µg/mL) | > 100 | 22.2 (≈ 15.4 µg/mL) | > 100 |  |  |  | 
9 | CNc1c(C)c2c3c4c1C(=O)C(=C(/C=N/N1CCN(C)CC1)C4=O)NC(=O)/C(C)=C\C=C\[C@H](C)[C@H](O)[C@@H](C)[C@@H](O)[C@@H](C)[C@H](OC(C)=O)[C@H](C)[C@@H](OC)/C=C/O[C@@](C)(O2)C3=O |  |  |  | 3.64 (≈ 3.04 µg/mL) |  | > 19.2 |  |  | 2100 | 6.9 | 
10 | CO[C@H]1/C=C/O[C@@]2(C)Oc3c(C)c(OS(=O)(=O)c4ccc(C)cc4)c4c(c3C2=O)C(=O)C=C(NC(=O)/C(C)=C\C=C\[C@H](C)[C@H](O)[C@@H](C)[C@@H](O)[C@@H](C)[C@H](OC(C)=O)[C@@H]1C)C4=O | 3.12 (≈ 2.66 µg/mL) | -1.68 | 21 | 0.2 (≈ 0.17 µg/mL) | > 100 | 3 (≈ 2.55 µg/mL) | > 100 |  |  |  | 2
11 | CO[C@H]1/C=C/O[C@@]2(C)Oc3c(C)c(OS(=O)(=O)c4ccc(C)cc4)c4c(c3C2=O)C(=O)C(/C=N/N2CCN(C)CC2)=C(NC(=O)/C(C)=C\C=C\[C@H](C)[C@H](O)[C@@H](C)[C@@H](O)[C@@H](C)[C@H](OC(C)=O)[C@@H]1C)C4=O |  |  |  |  | > 100 |  | > 100 |  |  |  | 
12 | CO[C@H]1/C=C/O[C@@]2(C)Oc3c(C)c(O)c4c(O)c(c(/C=N/N5CCN(C)CC5)c(O)c4c3C2=O)NC(=O)/C(C)=C\C=C\[C@H](C)[C@H](O)[C@@H](C)[C@@H](O)[C@@H](C)[C@H](OC(C)=O)[C@@H]1C [RIFAMPIN] | 0.1 (≈ 0.0823 µg/mL) |  |  | 0.13 (≈ 0.107 µg/mL) | 12.5 (≈ 10.3 µg/mL) | 1.9 (≈ 1.56 µg/mL) | 12.5 (≈ 10.3 µg/mL) |  |  |  | 
13 | CCNc1c(C)c2c3c4c1C(=O)C(=C(/C=N/N1CCN(C)CC1)C4=O)NC(=O)/C(C)=C\C=C\[C@H](C)[C@H](O)[C@@H](C)[C@@H](O)[C@@H](C)[C@H](OC(C)=O)[C@H](C)[C@@H](OC)/C=C/O[C@@](C)(O2)C3=O |  |  |  | > 4.7 |  | > 18.9 |  |  |  |  | 
14 | CO[C@H]1/C=C/O[C@@]2(C)Oc3c(C)c(NC4CCCCCC4)c4c(c3C2=O)C(=O)C=C(NC(=O)/C(C)=C\C=C\[C@H](C)[C@H](O)[C@@H](C)[C@@H](O)[C@@H](C)[C@H](OC(C)=O)[C@@H]1C)C4=O | > 12.5 | 1.19 | 15400 | 2.2 (≈ 1.74 µg/mL) | > 100 | > 20.2 | > 100 |  |  |  | 
15 | CNc1c(C)c2c3c4c1C(=O)C(=CC4=O)NC(=O)/C(C)=C\C=C\[C@H](C)[C@H](O)[C@@H](C)[C@@H](O)[C@@H](C)[C@H](OC(C)=O)[C@H](C)[C@@H](OC)/C=C/O[C@@](C)(O2)C3=O |  |  |  | > 5.6 |  | 20.6 (≈ 14.6 µg/mL) |  |  |  |  | 
16 | CO[C@H]1/C=C/O[C@@]2(C)Oc3c(C)c(NCCO)c4c(O)c(c(/C=N/N5CCN(C)CC5)c(O)c4c3C2=O)NC(=O)/C(C)=C\C=C\[C@H](C)[C@H](O)[C@@H](C)[C@@H](O)[C@@H](C)[C@H](OC(C)=O)[C@@H]1C |  |  |  | > 4.6 |  | > 18.5 |  |  |  |  | 
17 | O=[N+]([O-])c1cn2c(n1)OC[C@@H](OCc1ccc(OC(F)(F)F)cc1)C2 [PRETOMANID] |  |  |  | 0.66 (≈ 0.237 µg/mL) |  | 2.3 (≈ 0.826 µg/mL) |  |  |  |  | 
18 | CONc1c(C)c2c3c4c1C(=O)C(=CC4=O)NC(=O)/C(C)=C\C=C\[C@H](C)[C@H](O)[C@@H](C)[C@@H](O)[C@@H](C)[C@H](OC(C)=O)[C@H](C)[C@@H](OC)/C=C/O[C@@](C)(O2)C3=O |  |  |  | 3.8 (≈ 2.75 µg/mL) |  | 12.5 (≈ 9.06 µg/mL) |  |  |  |  | 

From ChEMBL document CHEMBL1909569 (Bioorg Med Chem Lett, 2011)
